Experimental findings from PubChem BioAssay AID1159605 (The Scripps Research Institute Molecular Screening Center, 2016) are described below.

Calls of active or inactive are those of the source.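 How the source made its calls: active means IC50 of 10 µM or lower; inactive means IC50 above 10 µM.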 A value given as a limit tells only on which side of the number the result lay.

For this test, the target named is Mitogen-activated protein kinase kinase kinase 5 (Homo sapiens) (UniProt Q99683). The test is described as follows: MAP3K5 inhibition concentration-response curves – biochemical, AlphaScreen, MKK6 phosphorylation, dose response (AID 1159605).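 Further: ASK1 phosphorylation of MKK6 substrate detected with anti-phospho-MKK6 antibody beads; inhibitors lower the luminescent signal by blocking MKK6 phosphorylation.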 The following applies: ASK1 MKK6 phosphorylation, AlphaScreen luminescence. In general terms: In Alpha technology, singlet oxygen from a donor bead excites a nearby acceptor bead.
Sequence of Mitogen-activated protein kinase kinase kinase 5 (Homo sapiens) (Q99683 whole entry, looked up): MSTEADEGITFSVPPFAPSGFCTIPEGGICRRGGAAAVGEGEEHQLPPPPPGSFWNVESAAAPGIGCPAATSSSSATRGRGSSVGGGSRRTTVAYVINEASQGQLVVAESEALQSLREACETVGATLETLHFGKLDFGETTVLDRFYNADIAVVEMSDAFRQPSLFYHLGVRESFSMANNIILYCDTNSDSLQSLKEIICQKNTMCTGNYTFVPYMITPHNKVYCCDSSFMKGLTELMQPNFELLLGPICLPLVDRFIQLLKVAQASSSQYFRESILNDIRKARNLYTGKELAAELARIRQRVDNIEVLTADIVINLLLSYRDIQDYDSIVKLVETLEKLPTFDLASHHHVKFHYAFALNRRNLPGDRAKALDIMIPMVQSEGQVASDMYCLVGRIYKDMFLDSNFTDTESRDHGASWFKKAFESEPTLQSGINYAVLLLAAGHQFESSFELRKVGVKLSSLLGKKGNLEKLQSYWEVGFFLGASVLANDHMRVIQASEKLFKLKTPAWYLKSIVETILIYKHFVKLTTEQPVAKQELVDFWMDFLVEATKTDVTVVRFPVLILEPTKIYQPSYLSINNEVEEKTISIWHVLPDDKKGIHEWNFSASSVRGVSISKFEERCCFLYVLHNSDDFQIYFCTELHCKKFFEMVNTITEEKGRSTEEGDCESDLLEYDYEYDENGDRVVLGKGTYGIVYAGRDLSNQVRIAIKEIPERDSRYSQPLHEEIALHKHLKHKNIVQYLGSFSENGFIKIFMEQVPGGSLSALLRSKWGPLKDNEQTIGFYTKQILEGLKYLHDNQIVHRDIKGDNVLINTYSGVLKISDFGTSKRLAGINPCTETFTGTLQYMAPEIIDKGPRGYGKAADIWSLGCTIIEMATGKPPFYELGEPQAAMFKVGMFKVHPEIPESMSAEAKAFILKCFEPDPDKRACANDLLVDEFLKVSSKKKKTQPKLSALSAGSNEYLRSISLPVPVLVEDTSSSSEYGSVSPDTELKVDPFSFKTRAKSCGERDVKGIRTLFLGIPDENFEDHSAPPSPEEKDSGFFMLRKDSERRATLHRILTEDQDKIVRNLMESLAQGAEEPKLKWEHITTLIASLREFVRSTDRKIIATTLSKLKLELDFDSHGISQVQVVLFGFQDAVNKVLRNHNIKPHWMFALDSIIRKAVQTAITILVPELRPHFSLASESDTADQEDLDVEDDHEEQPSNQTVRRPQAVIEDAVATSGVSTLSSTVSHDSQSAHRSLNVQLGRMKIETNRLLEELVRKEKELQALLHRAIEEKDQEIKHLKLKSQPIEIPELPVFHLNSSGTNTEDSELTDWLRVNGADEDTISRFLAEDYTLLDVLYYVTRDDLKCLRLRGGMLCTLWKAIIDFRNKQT
On to `COc1cc2nc(Nc3ccncc3)nc(Nc3ccc(N4CCOCC4)cc3)c2cc1OC`, for which the IC50 (as a rule, the concentration at which inhibition is half-maximal) was “inactive”.

Regarding `COc1ccc(CCNc2nc(Nc3ccc(N4CCOCC4)cc3)nc3c2ncn3-c2ccccc2)cc1`, the IC50 was 9.28 µM. For the molecule `Oc1ccc(CCNc2ncnc3nc(N4CCN(Cc5ccc6c(c5)OCO6)CC4)[nH]c23)cc1`, the IC50 is > 16.9 µM (inactive).

Turning to `c1cc(-n2cnc3c(Nc4ccc5c(c4)OCO5)nc(Nc4ccc(N5CCOCC5)cc4)nc32)cs1`, the IC50 was 5.72 µM.

With `c1cc(-n2cnc3c(Nc4ccc(N5CCOCC5)cc4)nc(N4CCN(Cc5ccc6c(c5)OCO6)CC4)nc32)cs1`, the IC50 result is “inactive”. The value for `c1ccc2c(c1)OCC(c1nc(N3CCOCC3)c3cc(-c4cn[nH]c4)ccc3n1)O2` (stereo unspecified) was > 19.2 µM (inactive). Consider `Cn1cc(-c2ccc3cnc(Nc4ccc(-n5cnc(N6CCOCC6)n5)cc4)nc3c2)cn1`, for which the IC50 is > 19.2 µM (inactive). The value for `c1cncc(CNc2nc(Nc3ccc(N4CCOCC4)cc3)nc3c2ncn3C2CCCCC2)c1` was > 20.1 µM (inactive); that for `CN(C)c1cccc(Nc2nc(NCCc3ccc(O)cc3)c3ncn(Cc4ccc(C(F)(F)F)cc4)c3n2)c1` was “inactive”. Turning to `c1ccc2c(c1)CCN(c1nccc(Nc3ccc(N4CCOCC4)cc3)n1)C2`, the IC50 result is “inactive”. The value for `COc1ccc(CCNc2nc(Nc3cccc(N(C)C)c3)nc3cc(OC)c(OC)cc23)cc1` was “inactive”; that for `COc1cc2nc(Nc3ccc(N4CCOCC4)cc3)nc(NCc3ccccc3)c2cc1OC` was > 20 µM (inactive). The value for `COc1ccc(CCNc2nc(Nc3ccc(N4CCOCC4)cc3)nc3c2ncn3Cc2ccc(C(F)(F)F)cc2)cc1` was 5.3 µM; that for `COc1cc(Nc2nc(-c3ccc(C(N)=O)cc3)ncc2C)cc(OC)c1OC` was “inactive”. The value for `Cc1cc(NCc2cccc(C(F)(F)F)c2)nc(Nc2cccc(N(C)C)c2)n1` was > 20.1 µM (inactive); that for `COc1cc(NC(=O)c2cccc(-n3cc(NC(=O)Nc4c(C)cccc4Cl)cn3)c2)cc(OC)c1OC` was > 19.2 µM (inactive); that for `c1ccc(CCn2ncc(-c3ccnc(Nc4ccc(N5CCOCC5)cc4)c3)c2Nc2ccccc2)cc1` was > 19.2 µM (inactive). Take `CC(C)n1cnc2c(Nc3ccc4c(c3)OCO4)nc(Nc3cccc(N(C)C)c3)nc21`: the IC50 is > 19.9 µM (inactive). Take `CN1CCN(c2ncn(-c3ccc(Nc4nccc(-c5cc(C#N)cc(N6CCC(O)CC6)c5)n4)cc3)n2)CC1`: the IC50 was > 19.2 µM (inactive). In the case of `COc1cc(Nc2nc(N3CCc4ccccc4C3)nc3c2ncn3-c2ccccc2)cc(OC)c1OC`, the IC50 result is “inactive”. The value for `c1ccc(Nc2cc(-c3ccnc(Nc4ccc(N5CCOCC5)cc4)c3)nn2-c2ccccc2)cc1` was > 19.2 µM (inactive).

Regarding `c1ccc(OCCNc2nc(Nc3ccc(N4CCOCC4)cc3)nc3c2ncn3C2CCCCC2)cc1`, the IC50 is 5.66 µM. `c1ccc(CN2CCC(Nc3ccnc(Nc4ccc(N5CCOCC5)cc4)n3)CC2)cc1`: the IC50 result was “inactive”. The value for `COc1cc2nc(Nc3ccc(N4CCOCC4)cc3)nc(Nc3ccccc3)c2cc1OC` was > 20.1 µM (inactive); that for `COc1c(-c2cnn(C)c2)ccc2cnc(Nc3ccc(-n4cnc(N5CCOCC5)n4)cc3)nc12` was > 19.2 µM (inactive). The value for `FC(F)(F)c1ccc(Cn2cnc3c(Nc4ccc5c(c4)OCO5)nc(N4CCN(c5ccccn5)CC4)nc32)cc1` was > 20 µM (inactive); that for `CC(=O)c1cccc(-c2nc(NCc3ccccc3)c3ncn(Cc4ccc(C(F)(F)F)cc4)c3n2)c1` was > 19.2 µM (inactive). Consider `COc1ccc(-c2nc(C)cc(Nc3ccc(N4CCOCC4)cc3)n2)cc1`, for which the IC50 is 9.06 µM. For the molecule `COc1ccc(CCNc2cc(C)nc(Nc3cccc(N(C)C)c3)n2)cc1`, the IC50 was 6.67 µM. The value for `CN(C)c1cccc(Nc2nc(NCCc3ccc(O)cc3)c3ncn(C4CCCCC4)c3n2)c1` was > 20 µM (inactive). The value for `Cc1cnc(-c2cccc(N)c2)nc1Nc1ccc(N2CCOCC2)cc1` was “inactive”.
